Assay results reported in paper PMC11984905, “Chiral Switch of Gadopiclenol: New Standards in MRI Probes” (Advanced Science, 2025).

Assays:
Assay type in all cases: physicochemical
[1] = Stability and protonation constants of Ca(II)-complexes (pH-potentiometry); details: 0.15 M NaCl, 25 °C
Procedure: (§1) The protonation constants of ligands, the stability and protonation constants of Ca(II)‐ and Zn(II)‐complexes formed with rac‐L1, ent‐L1, rac‐L2, and ent‐L2 ligands were determined by pH‐potentiometric titration. The metal‐to‐ligand concentration ratio was 1:1 (the concentration of the ligand was generally 0.002 M). The protonation constants of the Cu(II)‐ and Gd(III)‐complexes were determined using pH‐potentiometry by titrating the pre‐prepared complexes from pH 2.0 to 12.0 with 0.2 M NaOH. The stability constants of the Gd(III)‐complexes with rac‐L1 and ent‐L1 ligands were determined by the “out‐of‐cell” technique because of their slow formation reaction. The pH range of the complexation equilibria and the time needed to reach the equilibria were determined by relaxometry. Eight–eight Gd(III) – rac‐L1 and Gd(III) – ent‐L1 samples were prepared, with pH values in the range of 1.7–3.0 at equilibrium ([Gd^3+] = [L] = 0.002 M). The samples were kept at 25 °C for 6 weeks to reach equilibrium. For the calculation of the stability constants of the [Gd(rac‐L1)]^3− and [Gd(ent‐L1)]^3− complexes, besides the protonation constants of ligands and the Gd(III) complexes, the stability constants of the di‐protonated [^*Gd(H2 rac‐L1)]^− and [^*Gd(H2 […])]^− out‐of‐cage complexes (considered as intermediates) was also used as fixed values, which were calculated from the pH‐potentiometric titration curve of the Gd(III) – rac‐L1 and Gd(III) – ent‐L1 system obtained in the pH range of 1.7–7.0.
(§2) For the pH measurements and titrations, the Metrohm 888 Titrando titration workstation Metrohm‐6.0234.110 combined electrode was used. Equilibrium measurements were carried out at a constant ionic strength (0.15 M NaCl) in 6 mL samples at 25 °C. The solutions were stirred, and N2 was bubbled through them. The titrations were made in the pH range 1.7–12.0. KH‐Phthalate (pH 4.005) and borax (pH 9.177) buffers were used to calibrate the pH meter. For the calculation of [H^+] from the measured pH values, the method proposed by Irving et al. was used as follows.^[ [46] ^] A 0.01M HCl solution was titrated with standardized NaOH solution at 0.15 M NaCl ionic strength. The differences (A) between the measured (pHread) and calculated pH (‐log[H^+]) values were used to obtain the equilibrium H^+ concentration from the pH values measured in the titration experiments (A = 0.02). For the equilibrium calculations, the stoichiometric water ionic product (pK w) was also needed in order to calculate [OH^−] values under basic conditions. The VNaOH – pHread data pairs of the HCl – NaOH titration obtained in the pH range 10.5–12.0 were used to calculate the pK w value (pK w = 13.83).
(§3) The stability and protonation constants of Ca(II)-, Zn(II)-, Cu(II)- and Gd(III)-complexes of rac-L1, ent-L1, rac-L2 and ent-L2, defined by Equations (S2) and (S3), were investigated by pH-potentiometry, spectrophotometry and ^1H NMR relaxometry at 25 °C in 0.15 M NaCl solution.
(§4) where i=0, 1, 2,…5. The KML and KMHiL values characterizing the formation of Ca(II)-, Zn(II)-, Cu(II)- and Gd(III)-complexes with rac-L1, ent-L1, rac-L2 and ent-L2 ligands have been calculated from the pH-potentiometric titration data obtained at 1:1 metal to ligand concentration ratios. In calculating the equilibrium constants, the best fitting of the mL NaOH – pH data has been obtained by assuming the formation of ML, MHL, MH2L, MH3L, MH4L, MH5L and MLH-1 species. The formation of the deprotonated [GdLH-1]^- complexes with rac-L2 and ent-L2 ligands takes place at pH>9.0, as indicated by the base consumption in the titration curves. This deprotonation of the Gd(III)-complexes occurs on the inner-sphere water molecule.

[2] = Protonation constants of the ligands (pH-potentiometry); details: 0.15 M NaCl, 25 °C; for ΣlogKi^H: total basicity
Procedure: as §1, §2
The protonation constants of ligands, defined by Equation (S1), were determined by pH-potentiometry.
where i=1, 2…7. Standard deviations (3σ) are shown in parentheses. In Table S16, the logKi^H values of rac-L1 and rac-L2 can be regarded as the weighted average of the given protonation constant characterizing the basicity of the related protonation site in the different stereoisomers.

[3] = Stability and protonation constants of Zn(II)-complexes (pH-potentiometry); details: 0.15 M NaCl, 25 °C
Procedure: as §1, §2, §3, §4

Compound	logK CaL [1]	logKCaH2L [1]	logKCaH3L [1]	logKCaH4L [1]	logKCaHL [1]	logK1^H [2]	logK2^H [2]	logK3^H [2]	logK4^H [2]	logK5^H [2]	logK6^H [2]	logK7^H [2]	ΣlogKi^H [2]	logK ZnL [3]	logKZnH2L [3]	logKZnH3L [3]	logKZnH4L [3]	logKZnHL [3]
O=C(O)CCC(C(=O)O)N1CCN(C(CCC(=O)O)C(=O)O)Cc2cccc(n2)CN(C(CCC(=O)O)C(=O)O)CC1 (racemic) [rac‐L1, 2,2’,2’’-[3,6,9,15-tetraazabicyclo[9.3.1]pentadeca-1(15),11,13-triene-3,6,9-triyl]tripentanedioic acid]	10.10 (1)	5.34 (2)	4.83 (4)	4.45 (2)	5.72 (1)	10.58 (1)	6.99 (1)	5.50 (1)	4.82 (1)	4.23 (1)	3.65 (1)	2.34 (2)	38.11	19.54(2)	5.01 (2)	3.91 (3)	3.88 (3)	5.24 (4)
O=C(CCC(C(=O)O)N1CCN(C(CCC(=O)NCC(O)CO)C(=O)O)Cc2cccc(n2)CN(C(CCC(=O)NCC(O)CO)C(=O)O)CC1)NCC(O)CO (racemic) [rac‐L2]	7.84 (2)				4.86 (9)	9.58 (1)	5.96 (2)	4.30 (3)	2.86 (3)				22.70	18.66 (3)				3.77 (3)
O=C(O)CCC(C(=O)O)N1CCN(C(CCC(=O)O)C(=O)O)Cc2cccc(n2)CN(C(CCC(=O)O)C(=O)O)CC1 (stereo not drawn) [ent‐L1]	11.03 (1)	5.01 (2)	4.74 (2)	4.24 (3)	5.59 (2)	10.62 (1)	6.82 (1)	5.50 (2)	4.89 (2)	4.19 (2)	3.88 (2)	2.30 (2)	38.20	20.77 (2)	4.76 (2)	4.18 (2)	3.29 (2)	5.26 (2)
O=C(CCC(C(=O)O)N1CCN(C(CCC(=O)NCC(O)CO)C(=O)O)Cc2cccc(n2)CN(C(CCC(=O)NCC(O)CO)C(=O)O)CC1)NCC(O)CO (stereo not drawn) [ent‐L2]	10.26 (1)				4.16 (2)	10.43(1)	5.95 (1)	4.08 (1)	2.05 (2)				22.51	20.13 (3)				3.27 (3)
